According to ChEMBL document CHEMBL2311391, “Novel inhibitors of protein arginine deiminase with potential activity in multiple sclerosis animal model” (J Med Chem, 2013):

Experiments:
[1] = organism: Mus musculus; assay: Toxicity in mouse at 20 mg as single dose; assay type: organism-based; details: in vivo
[2] = organism: Mus musculus; assay: Toxicity in mouse at 10 mg for 5 days; assay type: organism-based; details: in vivo, 120 h
[3] = organism: Mus musculus; assay: Antiinflammatory activity against MOG peptide-induced experimental autoimmune encephalomyelitis mouse model assessed as CD3 marker measured on day 24 after 2 weeks of treatment (reference value: 4.8 +/- 0.19 /mm'2); assay type: functional

## CC1(C)NC(=O)N(CN2CCNCC2)C1=O
[1]
  Activity: Non-toxic
[2]
  Activity: Non-toxic
[3]
  Activity: 3.8 mm2
